This is an account of results in ChEMBL document CHEMBL3400090, “Benzofused hydroxamic acids: useful fragments for the preparation of histone deacetylase inhibitors. Part 2: 7-fluorobenzothiophenes and benzofurans” (Bioorg Med Chem Lett, 2015).

Test [1] concerns the target T1, Histone deacetylase (Rattus norvegicus) (UniProt Q6P6W3+Q99P99+Q99P96+Q4QQW4+Q99P97+Q5RJZ2+B1WBY8). The note with it: at 0.1 µM.
Description: Inhibition of isolated rat liver HDAC using substrate containing acetylated lysine side chain assessed as release of fluorophore at 0.1 uM by Fluor de Lys assay
Test [2] addresses T1, Histone deacetylase (Rattus norvegicus). The note with it: at 0.01 µM.
Description: Inhibition of isolated rat liver HDAC using substrate containing acetylated lysine side chain assessed as release of fluorophore at 0.01 uM by Fluor de Lys assay
Test [3] can be described thus: Antiproliferative activity against human HCT116 cells after 5 days by Alamar Blue assay. Type of test: functional, cell-based. The note with it: HCT-116, 120 h.

SMILES strings stand for the structures.

For `O=C(NCc1ccc2oc(C(=O)NO)cc2c1)c1ccccc1`, the results for the inhibition in test [1] and in test [2] were 49% and less than 20%, respectively. This molecule also had a half-maximal inhibitory concentration (IC50) in test [3] of 690 nM.

As to `COc1ccccc1C(=O)NCc1ccc2cc(C(=O)NO)sc2c1F`, the results for the inhibition in test [1] and in test [2] were 56% and less than 20%, respectively. For the same molecule, the IC50 in test [3] was determined as 1200 nM.

Consider `CN(C)CCCC(=O)Nc1ccc2oc(C(=O)NO)cc2c1`, for which the inhibition in test [1] is 26%; in test [2], less than 20%.

As to `COc1ccc(C(=O)NCc2ccc3cc(C(=O)NO)sc3c2F)cc1`, the inhibition in test [1] is 78%; in test [2], 39%. In addition, the IC50 in test [3] amounted to 50 nM.

Turning to `CN(C)c1ccc(C(=O)NCc2ccc3cc(C(=O)NO)sc3c2F)cc1`, the inhibition in test [1] was 61%; in test [2], less than 20%. The IC50 in test [3] was 60 nM.

For the molecule `Cc1cc(C(=O)NCc2ccc3cc(C(=O)NO)sc3c2F)oc1C`, the inhibition in test [1] was 59%; in test [2], 21%. Further, it took 470 nM to reach half-maximal inhibition in test [3] (IC50).

As to `COc1cccc(CC(=O)Nc2ccc3oc(C(=O)NO)cc3c2)c1`, the inhibition was 32% in test [1] and less than 20% in test [2].

Take `Cc1ncoc1C(=O)NCc1ccc2cc(C(=O)NO)sc2c1F`: the inhibition in test [1] is 61%; in test [2], 20%. Moreover, the IC50 in test [3] came out at 210 nM.

For `O=C(NCc1ccc2cc(C(=O)NO)sc2c1F)c1ccco1`, the inhibition was found to be 78% in test [1] and 39% in test [2]. Further, in test [3], the IC50 is 90 nM.

For the molecule `CN(C)c1ccc(CC(=O)Nc2ccc3oc(C(=O)NO)cc3c2)cc1`, the inhibition in test [1] is 34%; in test [2] it was less than 20%.

Take `O=C(NCc1ccc2cc(C(=O)NO)sc2c1F)c1ccccc1`: the inhibition in test [1] amounted to 64%; in test [2], 24%. For the same molecule, in test [3], the IC50 is 980 nM.

Consider `Cc1ccc(C(=O)NCc2ccc3cc(C(=O)NO)sc3c2F)s1`, for which the inhibition in test [1] came to 80%; in test [2], 41%. Half-maximal inhibition in test [3] (IC50) required 120 nM.

In the case of `O=C(NCc1ccc2cc(C(=O)NO)sc2c1F)c1ccc[nH]1`, the inhibition in test [1] was 76%; in test [2], 45%. The same molecule had a half-maximal inhibitory concentration (IC50) in test [3] of 300 nM.

As to `O=C(NO)c1cc2ccc(CN(CCO)Cc3ccccc3)c(F)c2s1`, the inhibition in test [1] is 48%; in test [2], less than 20%. Moreover, it took 800 nM to reach half-maximal inhibition in test [3] (IC50).

Regarding `COc1ccc(CC(=O)Nc2ccc3oc(C(=O)NO)cc3c2)cc1`, the inhibition is 42% in test [1] and less than 20% in test [2]. The molecule further showed an IC50 in test [3] of 2700 nM.

For the molecule `O=C(NO)c1cc2ccc(CN3CCc4ccccc4C3)c(F)c2s1`, the inhibition in test [1] was 45%; in test [2], less than 20%. In test [3], the IC50 was found to be 3000 nM.

In the case of `COCc1ccc(C(=O)NCc2ccc3cc(C(=O)NO)sc3c2F)o1`, the inhibition came out at 67% in test [1] and 23% in test [2]. The same molecule gave an IC50 in test [3] of 310 nM.

With `O=C(NCc1ccc2oc(C(=O)NO)cc2c1)c1ccco1`, the inhibition in test [1] was 45%; in test [2] it was less than 20%. The molecule further came in with a 50% inhibitory concentration (IC50) in test [3] of 860 nM.

On to `O=C(Cc1ccccc1)Nc1ccc2oc(C(=O)NO)cc2c1`, for which the inhibition in test [1] is 41%; in test [2], less than 20%. Also, the IC50 in test [3] was 1700 nM.

With `O=C(NCc1ccc2cc(C(=O)NO)oc2c1)c1ccco1`, the results for the inhibition in test [1] and in test [2] were 27% and less than 20%, respectively.
